Data on ten molecules can be found in publication PMC5934329 (Neuropharmacology, 2017).

“And” between values parts separate entries of the source, which are not always exact repeats. Equal values may be shown once. Read-outs that look alike come from different tables or passages of the source.

One test addresses human CB1 (hCB1) (Homo sapiens, UniProt P21554). The test is described as follows: [3H]CP55,940 displacement binding at hCB1 membranes.
Another test relates to male C57BL/6 inbred mice. The test is described as follows: THC drug discrimination. Type of test: in vivo. The note with it: for ED50: Mus musculus, ip, read-out: ED50 for substitution in THC discrimination; for Effect on response rate: compared to vehicle; for ED50 for substitution in THC discrimination: mice trained with 5.6 mg/kg THC i.p., value (95% confidence limits).
Another test has as its target hCB2 receptor (Homo sapiens, UniProt P34972). The experiment in a line: Agonist-stimulated [35S]GTPγS binding, hCB2 membranes. The note with it: for Emax: read-out: [35S]GTPγS Turnover CB2 Emax. For orientation: GTPγS is a poorly hydrolysed GTP analogue; its binding reports G protein activation.
For another test, the target named is human CB2 (hCB2) (Homo sapiens, UniProt P34972). The experiment in a line: [3H]CP55,940 displacement binding at hCB2 membranes.
A further test has as its target hCB1 receptor (Homo sapiens, UniProt P21554). The test is described as follows: Agonist-stimulated [35S]GTPγS binding, hCB1 membranes. The conditions noted are these: for Emax: read-out: [35S]GTPγS Turnover CB1 Emax.
The target of another test is CB1 receptors. The conditions noted are these: read-out: CB1 affinity; rat CB1 receptors ref Huffman et al., 2005; cited from earlier work.

Chain of hCB2 receptor (P34972 whole entry): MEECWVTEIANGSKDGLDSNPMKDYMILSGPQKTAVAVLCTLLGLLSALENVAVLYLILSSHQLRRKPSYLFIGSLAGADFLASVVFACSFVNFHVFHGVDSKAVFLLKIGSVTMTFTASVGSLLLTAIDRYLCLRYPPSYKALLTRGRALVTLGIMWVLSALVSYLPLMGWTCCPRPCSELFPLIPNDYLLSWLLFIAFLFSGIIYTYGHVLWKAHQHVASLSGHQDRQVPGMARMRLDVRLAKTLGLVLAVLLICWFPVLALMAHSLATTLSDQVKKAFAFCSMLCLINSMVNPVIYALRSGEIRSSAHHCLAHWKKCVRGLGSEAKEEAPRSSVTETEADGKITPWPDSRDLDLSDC
Chain of human CB2 (hCB2) (P34972 whole entry): as above
Chain of human CB1 (hCB1) (P21554 whole entry): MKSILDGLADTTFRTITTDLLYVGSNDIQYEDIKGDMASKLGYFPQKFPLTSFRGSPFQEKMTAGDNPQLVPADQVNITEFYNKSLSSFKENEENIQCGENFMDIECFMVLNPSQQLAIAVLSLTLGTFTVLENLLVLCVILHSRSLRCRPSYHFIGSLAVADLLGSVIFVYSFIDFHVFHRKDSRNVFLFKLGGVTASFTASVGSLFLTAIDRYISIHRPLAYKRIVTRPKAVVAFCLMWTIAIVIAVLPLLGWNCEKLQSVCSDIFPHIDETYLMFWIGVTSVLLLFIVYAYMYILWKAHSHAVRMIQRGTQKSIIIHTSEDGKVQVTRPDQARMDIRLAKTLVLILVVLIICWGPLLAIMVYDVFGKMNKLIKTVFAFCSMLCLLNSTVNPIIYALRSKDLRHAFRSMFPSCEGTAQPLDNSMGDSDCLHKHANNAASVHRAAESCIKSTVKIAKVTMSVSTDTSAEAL
Chain of hCB1 receptor (P21554 whole entry): as above

By ED50 is commonly meant the midpoint of the dose-response relation. In general, EC50 refers to the midpoint of the concentration-response curve. By Emax is commonly meant the size of the effect at its maximum, as opposed to the concentration needed. On to `CCCCCn1cc(C(=O)c2ccccc2I)c2ccccc21` [AM-679, (2-iodophenyl)(1-pentyl-1H-indol-3-yl)methanone], for which the Ki at human CB1 (hCB1) was determined as 0.0396 µM; at human CB2 (hCB2), 0.0021 µM. The ED50 in the test on male C57BL/6 inbred mice was 5.8 µmol/kg. The 50% effective concentration (EC50) at hCB2 receptor is 0.019 µM; on hCB1 receptor it was 0.881 µM. Moreover, the results for the maximal response (Emax) on hCB2 receptor and at hCB1 receptor were 31.1% and 132%, respectively.
With `CCc1ccc(C(=O)c2cn(CCCCCF)c3ccccc23)c2ccccc12` [EAM-2201, (4-ethyl-1-naphthalenyl)[1-(5-fluoropentyl)-1H-indol-3-yl]-methanone], the Ki on human CB1 (hCB1) came to 0.00041 µM; at human CB2 (hCB2), 0.00038 µM. Besides, in the test with male C57BL/6 inbred mice, the median effective dose (ED50) is 0.04 µmol/kg. In addition, in the test with male C57BL/6 inbred mice (across the dose range tested), the “Effect on response rate” value was “no doses produced significant differences from vehicle”. Besides, the concentration for a half-maximal effect (EC50) is 0.0919 µM on hCB2 receptor and 0.0468 µM at hCB1 receptor. For the same molecule, the maximal response (Emax) at hCB2 receptor was determined as 40.2%; on hCB1 receptor, 270%.
With `CCCCCn1cc(C(=O)Cc2ccccc2C)c2ccccc21` [JWH-251, 2-(2-methylphenyl)-1-(1-pentyl-1H-indol-3-yl)ethenone], the Ki is 0.016 µM and 0.0162 µM on human CB1 (hCB1) (read-out: CB1 Ki, [3H]CP55,940 displacement, hCB1, value (SEM)); 0.029 ± 0.003 µM at CB1 receptors; 0.015 µM and 0.0151 µM at human CB2 (hCB2) (read-out: CB2 Ki, [3H]CP55,940 displacement, hCB2, value (SEM)). For the same molecule, the “ED50 for substitution in THC discrimination” value (“ED50 for substitution” for short) in the test on male C57BL/6 inbred mice is 4.07 (3.11-5.31) μmol/kg. Further, the EC50 at hCB2 receptor (read-out: [35S]GTPγS Turnover CB2 EC50, hCB2 membranes, value (SEM)) is 1.52 µM; at hCB1 receptor (read-out: [35S]GTPγS Turnover CB1 EC50, hCB1 membranes, value (SEM)), 0.918 µM. Also, the “[35S]GTPγS Turnover CB1 Emax” value on hCB1 receptor (% maximal increase over basal, hCB1, value (SEM)) is recorded as 227.6 (31.6) 3%.
Take `CCCCCn1cc(C(=O)c2ccc(CC)c3ccccc23)c2ccccc21` [JWH-210, 4-ethylnaphthalen-1-yl-(1-pentylindol-3-yl)methanone]: in the test with male C57BL/6 inbred mice, the ED50 was determined as 0.33 µmol/kg. Besides, the EC50 stood at 0.051 µM at hCB2 receptor and 0.116 µM at hCB1 receptor. Also, the values for the Emax on hCB2 receptor and on hCB1 receptor were 43.6% and 287%, respectively. At human CB2 (hCB2), this molecule displayed a Ki of 0.00094 µM.
With `Cc1ccc(C(=O)c2cn(CCCCCF)c3ccccc23)c2ccccc12` [MAM-2201, (1-(5-fluoropentyl)-1H-indol-3-yl)(4-methyl-1-naphthalenyl)-methanone], the figures for the Ki at human CB1 (hCB1) and on human CB2 (hCB2) were 0.00186 µM and 0.00059 µM, respectively. The “Substitution for THC in drug discrimination” value (from here on “Substitution for THC”) with male C57BL/6 inbred mice (0.3 mg/kg) is “full substitution”. The “Effect on response rate” value with male C57BL/6 inbred mice (0.3 mg/kg) was “reductions in response rates”. Moreover, the ED50 in the test with male C57BL/6 inbred mice amounted to 0.11 µmol/kg. In addition, the EC50 at hCB2 receptor came to 0.00193 µM; at hCB1 receptor, 0.0361 µM. Further, the “Potency for stimulating [35S]GTPγS turnover at CB2 relative to CP55,940” value on hCB2 receptor (more potent than CP55,940) is “approximately 4 fold”. The Emax is 23.2% on hCB2 receptor and 310% on hCB1 receptor.
As for `CCCCCc1cc(O)c2c(c1)OC(C)(C)[C@@H]1CCC(C)=C[C@@H]21` [THC, Δ^9-tetrahydrocannabinol, reference compound], the “Effect on response rate” value in the test on male C57BL/6 inbred mice (across the dose range tested) is reported as “did not alter response rates”. Moreover, the “ED50 for substitution” value in the test with male C57BL/6 inbred mice is 4.96 (3.41-7.21) μmol/kg.
For the molecule `CCCCCCC(C)(C)c1ccc(C2CC(O)CCC2CCCO)c(O)c1` (single isomer, unassigned; (-)) [CP55,940, (-)-cis-3-[2-Hydroxy-4-(1,1-dimethylheptyl)phenyl]-trans-4-(3-hydroxypropyl)cyclohexanol, reference compound], in the test with male C57BL/6 inbred mice (0.3 mg/kg), the “Substitution for THC” value is “full substitution” and the “Effect on response rate” value is on record as “reductions in response rates”. Besides, the “ED50 for substitution” value in the test on male C57BL/6 inbred mice is listed as 0.07 (0.04-0.14) μmol/kg.
Molecule `N#CCCCCn1cc(C(=O)c2cccc3ccccc23)c2ccccc21` [AM-2232, 5-(3-(1-naphthoyl)-1H-indol-1-yl)pentanenitrile] displayed a Ki on human CB1 (hCB1) of 0.0145 µM. In addition, in the test with male C57BL/6 inbred mice (1.0 mg/kg), the “Substitution for THC” value is on record as “full substitution” and the “Effect on response rate” value is on record as “reductions in response rates”. Besides, the ED50 in the test with male C57BL/6 inbred mice stood at 0.54 µmol/kg. For the same molecule, at hCB2 receptor, the EC50 came out at 0.406 µM and the Emax worked out at 31.3%. The molecule further returned a Ki at human CB2 (hCB2) of 0.0112 µM. In addition, at hCB1 receptor, the EC50 was 0.833 µM and the maximum response (Emax) amounted to 204%.
In the case of `CN1CCCC[C@@H]1Cn1cc(C(=O)c2cccc3ccccc23)c2ccccc21` [AM-1220, (R)-(1-((1-methylpiperidin-2-yl)methyl)-1H-indol-3-yl)(naphthalen-1-yl)methanone], the ED50 in the test on male C57BL/6 inbred mice is 0.26 µmol/kg. Further, the “[35S]GTPγS Turnover CB2 Emax” value on hCB2 receptor (% maximal increase over basal, hCB2, value (SEM)) was “Not determinable”. Besides, the “[35S]GTPγS Turnover CB2 EC50” value at hCB2 receptor (hCB2 membranes, value (SEM)) is “Not determinable”. The Ki at human CB2 (hCB2) is 0.00026 µM. Also, the Emax on hCB1 receptor was 132%.
On to `CN1CCCCC1Cn1cc(C(=O)c2ccccc2I)c2ccccc21` (stereo not shown) [AM-2233, 1-[(N-methylpiperidin-2-yl)methyl]-3-(2-iodobenzoyl)indole], for which the Ki on human CB1 (hCB1) turned out to be 0.00663 µM; on human CB2 (hCB2), 0.00048 µM. The 50% effective dose (ED50) in the test with male C57BL/6 inbred mice stood at 0.42 µmol/kg. For the same molecule, the EC50 stood at 0.715 µM on hCB2 receptor and 0.213 µM at hCB1 receptor. Moreover, the maximal response (Emax) on hCB2 receptor worked out at 21%; on hCB1 receptor, 144%.
